This is an account of results in US10526580B2, “Differentiated cell population of endothelial cells derived from human pluripotent stem cells, composition, system, kit and uses thereof” (BIOCANT-ASSOCIAÇÃO DE TRANSFERÊNCIA DE TECNOLOGIA, priority 2012, dated 2020).

Structures can show the parent of a compound that is named as a salt.

The test system of the experiment is hESC-derived ECs versus ACL cells. Nature of the experiment: High-throughput screening of LOPAC library, PrestoBlue cell viability, hESC-derived ECs versus ACL cells. To be noted: LOPAC screen, 4.5 μM, 4 days of incubation, PrestoBlue assay. The class given is cell-based, human. The protocol:
High-throughput screening (HTS). HUAECS (Lonza) and hESC-derived ECs were cultured in EGM-2 medium while human anterior cruciate ligament cells (ACL cells) were cultured in Dulbecco's modified Eagle's medium (DMEM; PAA) supplemented with 10% FBS, 0.2 mM ascorbic acid 2-phosphate magnesium salt (Sigma Aldrich), […] streptomycin and 100 U/mL penicillin (Life Technologies). ACL cells were isolated from patients that have signed an informed consent form, in compliance with the Dutch legislation. The ethical committee of Medisch Spectrum Twente Hospital approved the collection.
The LOPAC library (Sigma-Aldrich) was used to screen embryonic endothelial-specific cytotoxic compounds. The compounds were solubilized in DMSO. The final compound concentration used in the screen was 4.5 μM in a final volume of 200 μL per well (96-well plate). HUAECs, hESC-derived EC and ACL cells were seeded at 16,000 cells/well (HUAECs and hESC-derived ECs) and 5,000 cells/well (ACL cells) and allowed to reach near confluence (approximately two days). After two days, medium was exchanged and test compounds and controls were added to the 96-well plates (all wells contained 0.25% (v/v) DMSO). After 4 days of incubation, cell viability was assessed using a PrestoBlue (Invitrogen) assay. This assay is based on a resazurin-based solution that indicates the reducing power of living cells and therefore measures indirectly their number. For each measurement, cell medium was removed and the PrestoBlue solution (10%) was added for 3 h at 37° C. upon which the absorbance was measured at 560-590 nm.
Disruption of vascular development has been directly correlated with prenatal loss, malformations and neurodevelopmental problems^41-44. […] The library was screened at a single dosage of 4.5 μM in a volume of 200 μL per well of EGM-2 medium, containing 0.25% DMSO (v/v). […] Six compounds (danazol, chlorpromazine hydrochloride, ellipticine, 3′,4′-dichlorobenzamil, fluphenazine dihydrochloride and 7-cyclopentyl-5-(4-phenoxy)phenyl-7H-pyrrolo[2,3-d]pyrimidin-4-ylamine) affected cell viability in both cells by a difference of 20% (FIG. 4B). The six compounds belong to different classes: cell cycle, ion pumps, dopamine pathway, phosphorylation and hormone signaling. The compounds selected from the primary screen were then tested against hESC-derived ECs and HUAECs at eight different concentrations to obtain a dose-response curve (FIG. 4C and FIG. 14).
Regarding `CN(C)S(=O)(=O)c1ccc2c(c1)/C(=C/c1cc3c([nH]1)CCCC3)C(=O)N2` [SU 6656], the “Differences (%) in cell viability (hESC-Derived ECs versus ACL cells)” value (“Differences (%) in cell viability” below) stood at 61.5%.
In the case of `CC(Oc1ccc(Oc2cnc3ccc(Cl)cc3n2)cc1)C(=O)O` (stereo not drawn) [XK469], the “Differences (%) in cell viability” value stood at 75.9%.
As to `CNCC[C@@H](Oc1ccccc1C)c1ccccc1` [Tomoxetine], the “Differences (%) in cell viability” value turned out to be 68.7%.
In the case of `CCN(CC)C(=O)N[C@H]1C[C@@H]2c3cccc4[nH]cc(c34)C[C@H]2N(C)C1` [R(+)-Terguride] it was 57.1%; in that of `CCCCCCCCCCCCCCCCCC(=O)NCC(COP(=O)([O-])OCC[N+](C)(C)C)OCC` (racemic) [rac-2-Ethoxy-3-octadecanamido-1-propylphosphocholine], 56.2%; in that of `COc1cc(-c2ccc(=O)[nH]n2)ccc1OC(F)F` [Zardaverine], 84.0%.
Regarding `CCCCCCCC/C=C\CCCCCCCC(=O)NCCc1ccc(O)c(O)c1` [N-Oleoyldopamine], the “Differences (%) in cell viability” value came to 54.8%.
Under `CC[C@H]1CN2CCc3cc(OC)c(OC)cc3[C@@H]2C[C@@H]1C[C@H]1NCCc2cc(OC)c(OC)cc21` [Emetine dihydrochloride hydrate] stands 93.4%; under `O=C1Nc2ccccc2/C1=C1/Nc2ccccc2/C1=N\O` [Indirubin-3′-oxime], 85.5%.
Under `C[C@@H]1O[C@@H](O[C@H]2C[C@@H](O)[C@]3(CO)[C@H]4[C@H](O)C[C@]5(C)[C@@H]([C@@H]6COC(=O)C6)CC[C@]5(O)[C@@H]4CC[C@]3(O)C2)[C@H](O)[C@H](O)[C@H]1O` [Dihydroouabain] stands 97.0%.
Consider `Cc1scc2c1N(C(=O)CN1CCN(C)CC1)c1ccccc1NC2=O` [Telenzepine dihydrochloride], for which the “Differences (%) in cell viability” value was found to be 68.9%.
For the molecule `COc1ccc(CCCOC(Cn2ccnc2)c2ccc(OC)cc2)cc1` (stereo not drawn) [SKF 96365], the “Differences (%) in cell viability” value worked out at 69.8%.
Turning to `CC(=O)O[C@H]1C(=O)[C@@]2(C)[C@H]([C@H](OC(=O)c3ccccc3)[C@]3(O)C[C@H](OC(=O)[C@H](O)[C@@H](NC(=O)c4ccccc4)c4ccccc4)C(C)=C1C3(C)C)[C@]1(OC(C)=O)CO[C@@H]1C[C@@H]2O` [Taxol], the “Differences (%) in cell viability” value stood at 78.1%.
Consider `CC(/C=C/c1cccc(Oc2ccc(F)cc2)c1)N(O)C(N)=O` (stereo not drawn) [BWB70C], for which the “Differences (%) in cell viability” value stood at 55.3%.
`CC(C)[C@@]1(NC(=O)[C@@H]2C=C3c4cccc5[nH]cc(c45)C[C@H]3N(C)C2)O[C@@]2(O)[C@@H]3CCCN3C(=O)[C@H](Cc3ccccc3)N2C1=O` [Ergocristine]: the “Differences (%) in cell viability” value is on record as 52.5%.
For the molecule `Cc1cc(N)c2ccccc2[n+]1CCCCCCCCCC[n+]1c(C)cc(N)c2ccccc21` [Dequalinium dichloride], the “Differences (%) in cell viability” value is listed as 60.6%.
Take `CNc1ccc2oc(C[C@H]3O[C@@]4(CC[C@H]3C)O[C@H]([C@H](C)C(=O)c3ccc[nH]3)[C@H](C)C[C@H]4C)nc2c1C(=O)O` [Calcimycin]: the “Differences (%) in cell viability” value amounted to 96.2%.
With `Br.CN=c1nc(-c2ccccc2)n(-c2ccccc2)s1` [SCH-202676 hydrobromide], the “Differences (%) in cell viability” value came out at 53.2%.
On to `COc1cc(OC)c(C=C2C(O)=Nc3ccccc32)c(OC)c1` [IC 261], for which the “Differences (%) in cell viability” value worked out at 73.0%.
In the case of `CC1=C(C)C(=O)C(CCCCC#CCCCC#CCO)=C(C)C1=O` [AA-861], the “Differences (%) in cell viability” value is given as 53.3%.
Under `CCn1c(=O)[nH]c2cc(Cl)c(Cl)cc21` [DCEBIO] stands 73.2%; under `[N-]=[N+]=Nc1ccc(C(=O)CSC[C@H](NC(=O)CC[C@H](N)C(=O)O)C(=O)NCC(=O)O)cc1` [S-(p-Azidophenacyl)glutathione], 61.3%.
As for `CCCN1CCC[C@@H](c2cccc(O)c2)C1.Cl` [S(−)-3PPP hydrochloride], the “Differences (%) in cell viability” value stood at 51.8%.
On to `CCN(CC)C(C)C(=O)N1c2ccccc2Sc2ccccc21.Cl` (stereo not drawn) [10-(alpha-Diethylaminopropionyl)-phenothiazine hydrochloride], for which the “Differences (%) in cell viability” value stood at 56.8%.
As to `COc1cc2c(c(OC)c1OC)-c1ccc(OC)c(=O)cc1[C@@H](NC(C)=O)CC2` [Colchicine], the “Differences (%) in cell viability” value was found to be 67.4%.
For the molecule `CCOC(=O)C1=C(C)NC(C)=C(C(=O)OC)C1c1cccc(Cl)c1Cl` (stereo not drawn) [Felodipine], the “Differences (%) in cell viability” value was found to be 58.1%.
On to `CC[C@@]1(O)C(=O)OCc2c1cc1n(c2=O)Cc2cc3ccccc3nc2-1` [(S)-(+)-Camptothecin], for which the “Differences (%) in cell viability” value was 96.3%.
As to Ivermectin, the “Differences (%) in cell viability” value was determined as 78.7%.
Consider `CC(=O)[C@]1(O)Cc2c(O)c3c(c(O)c2[C@@H](O[C@H]2C[C@H](N)[C@H](O)[C@H](C)O2)C1)C(=O)c1ccccc1C3=O` [Idarubicin], for which the “Differences (%) in cell viability” value amounted to 94.0%.
As to `O=C(O)c1ccccc1Nc1cccc(OCc2ccc3ccccc3n2)c1` [SR 2640], the “Differences (%) in cell viability” value stood at 53.0%.
On to `Cc1cc(N)c2ccccc2[n+]1CCCCCCCCCCCCCC[n+]1c(C)cc(N)c2ccccc21` [Dequalinium analog, C-14 linker], for which the “Differences (%) in cell viability” value was determined as 96.6%.
In the case of `COC[C@H]1OC(=O)c2coc3c2[C@@]1(C)C1=C(C3=O)[C@@H]2CCC(=O)[C@@]2(C)C[C@H]1OC(C)=O` [Wortmannin from Penicillium funiculosum, Wortmannin] it was 57.9%; in that of `Cc1c(C)c2c(c(C)c1O)CCC(C)(CN1CCN(c3cc(N4CCCC4)nc(N4CCCC4)n3)CC1)O2.Cl.Cl` (stereo not drawn) [U-83836 dihydrochloride], 51.3%.
Regarding `C[C@]12C=CC(=O)C=C1CC[C@@H]1C2=CC[C@]2(C)[C@@H](C(=O)CN3CCN(c4cc(N5CCCC5)nc(N5CCCC5)n4)CC3)CC[C@@H]12.O=C(O)/C=C\C(=O)O` [U-74389G maleate], the “Differences (%) in cell viability” value came to 51.6%.
Under `N#C/C(=C\c1ccc(O)c(O)c1)C(=O)NCCCNC(=O)/C(C#N)=C/c1ccc(O)c(O)c1` [Tyrphostin AG 537] stands 52.3%.
In the case of `COc1cc2c(cc1C(F)(F)F)N(C(=O)Nc1cc(F)cc(-c3cccnc3)c1)CC2` [SB 228357] it was 62.7%; in that of `CN(C)CCCN1c2ccccc2Sc2ccc(C(F)(F)F)cc21` [Triflupromazine hydrochloride], 53.0%; in that of `CC(C)(C)c1ccc(C(O)CCCN2CCC(C(O)(c3ccccc3)c3ccccc3)CC2)cc1` (stereo not drawn) [Terfenadine], 98.3%.
Regarding `CSc1ccc2c(c1)C(N1CCN(C)CC1)Cc1ccccc1S2` (stereo not drawn) [Methiothepin mesylate], the “Differences (%) in cell viability” value is 52.4%.
